Target: human activated kallikrein enzyme (Homo sapiens (Human), UniProt P03952)
Assay: Inhibition of human activated kallikrein enzyme, fluorogenic peptide substrate assay (two formats)
Format: biochemical
Conditions: Table 2; column head prints nM, ranges defined in μM; read-out: pKal EC50
Procedure: The example compounds were evaluated for inhibition of the human activated kallikrein enzyme in two formats of an assay employing a fluorogenic peptide substrate. In one assay format, the concentrations of reagents were as follows: 20 mM Tris pH 7.5, 1 mM EDTA, 150 mM sodium chloride, 0.1% PEG-400, 0.1% Triton X-100, 500 pM activated kallikrein enzyme, 300 uM Pro-Phe-Arg-7-amido-4-methylcoumarin substrate. Prior to reaction initiation with substrate, enzyme and inhibitors were preincubated for 30 min at room temperature. After initiation with substrate, reactions were incubated for 10 min at room temperature and fluorescence emission at 460 nm from 380 nm excitation measured with a microplate reader. In another assay format, the concentrations of reagents were as follows: 20 mM Tris pH 7.5, 1 mM EDTA, 150 mM sodium chloride, 0.1% PEG-400, 0.1% Triton X-100, 5 pM activated kallikrein enzyme, 300 uM Pro-Phe-Arg-7-amido-4-methylcoumarin substrate. Prior to reaction initiation with substrate, enzyme and inhibitors were preincubated for 30 min at room temperature. After initiation with substrate, reactions were incubated for 18 hr at room temperature and fluorescence emission at 460 nm from 380 nm excitation measured with a microplate reader.

Sequence of human activated kallikrein enzyme (P03952 391-638): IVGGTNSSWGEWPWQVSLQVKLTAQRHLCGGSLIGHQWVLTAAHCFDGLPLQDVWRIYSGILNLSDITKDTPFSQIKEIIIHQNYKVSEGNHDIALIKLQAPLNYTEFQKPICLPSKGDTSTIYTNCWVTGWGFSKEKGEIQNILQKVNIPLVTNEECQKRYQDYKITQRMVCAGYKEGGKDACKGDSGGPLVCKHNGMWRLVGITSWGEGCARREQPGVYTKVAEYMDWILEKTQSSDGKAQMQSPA
Sequence of human activated kallikrein enzyme (P03952 20-390 partner): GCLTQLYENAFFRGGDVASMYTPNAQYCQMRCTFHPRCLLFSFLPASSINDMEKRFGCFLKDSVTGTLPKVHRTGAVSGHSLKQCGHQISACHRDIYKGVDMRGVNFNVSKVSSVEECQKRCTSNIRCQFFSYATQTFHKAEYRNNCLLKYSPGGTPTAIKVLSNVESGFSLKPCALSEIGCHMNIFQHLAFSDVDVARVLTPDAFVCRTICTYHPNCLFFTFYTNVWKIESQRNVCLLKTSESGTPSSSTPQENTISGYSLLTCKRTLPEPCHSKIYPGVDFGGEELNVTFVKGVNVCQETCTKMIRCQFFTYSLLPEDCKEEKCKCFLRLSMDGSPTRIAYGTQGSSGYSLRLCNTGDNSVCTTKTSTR

EC50 [nM] | SMILES
1000 to 5000 | CNC(=O)[C@H](CCCCNC(=N)N)NC(=O)c1csc([C@H]2C[C@@H](N)CN2C(=O)c2cn3cc(Cl)ccc3n2)n1 [Compound 1, 2-((2R,4R)-4-amino-1-(6-chloroimidazo[1,2-a]pyridine-2-carbonyl)pyrrolidin-2-yl)-N—((S)-6-guanidino-1-(methylamino)-1-oxohexan-2-yl)thiazole-4-carboxamide]
> 9900 | CNC(=O)[C@@H](CCCCNC(=N)N)NC(=O)c1csc([C@H]2C[C@@H](N)CN2C(=O)c2cn3cc(Cl)ccc3n2)n1 [Compound 2, 2-((2R,4R)-4-amino-1-(6-chloroimidazo[1,2-a]pyridine-2-carbonyl)pyrrolidin-2-yl)-N—((R)-6-guanidino-1-(methylamino)-1-oxohexan-2-yl)thiazole-4-carboxamide]
> 9900 | CNC(=O)[C@H](CCCCNC(=N)N)NC(=O)c1csc([C@H]2CCCN2C(=O)c2cn3cc(Cl)ccc3n2)n1 [Compound 3, 2-((R)-1-(6-Chloroimidazo[1,2-a]pyridine-2-carbonyl)pyrrolidin-2-yl)-N—((S)-6-guanidino-1-(methylamino)-1-oxohexan-2-yl)thiazole-4-carboxamide]
> 9900 | CNC(=O)[C@@H](CCCCNC(=N)N)NC(=O)c1csc([C@H]2CCCN2C(=O)c2cn3cc(Cl)ccc3n2)n1 [Compound 4, 2-((R)-1-(6-Chloroimidazo[1,2-a]pyridine-2-carbonyl)pyrrolidin-2-yl)-N—((R)-6-guanidino-1-(methylamino)-1-oxohexan-2-yl)thiazole-4-carboxamide]
> 9900 | CNC(=O)[C@H](CCCCNC(=N)N)NC(=O)c1csc([C@H]2C[C@@H](NC(C)=O)CN2C(=O)c2cn3cc(Cl)ccc3n2)n1 [Compound 5, 2-((2R,4R)-4-acetamido-1-(6-chloroimidazo[1,2-a]pyridine-2-carbonyl)pyrrolidin-2-yl)-N—((S)-6-guanidino-1-(methylamino)-1-oxohexan-2-yl)thiazole-4-carboxamide]
1000 to 5000 | CNC(=O)[C@H](CCCCNC(=N)N)NC(=O)c1csc([C@H]2C[C@H](N)CN2C(=O)c2cn3cc(Cl)ccc3n2)n1 [Compound 6, 2-((2R,4S)-4-amino-1-(6-chloroimidazo[1,2-a]pyridine-2-carbonyl)pyrrolidin-2-yl)-N—((S)-6-guanidino-1-(methylamino)-1-oxohexan-2-yl)thiazole-4-carboxamide]
> 9900 | CNC(=O)[C@H](CCCCNC(=N)N)NC(=O)c1csc([C@H]2C[C@H](O)CN2C(=O)c2cn3cc(Cl)ccc3n2)n1 [Compound 7, 2-((2R,4S)-1-(6-Chloroimidazo[1,2-a]pyridine-2-carbonyl)-4-hydroxypyrrolidin-2-yl)-N—((S)-6-guanidino-1-(methylamino)-1-oxohexan-2-yl)thiazole-4-carboxamide]
> 9900 | CNC(=O)[C@@H](CCCCNC(=N)N)NC(=O)c1csc([C@H]2C[C@H](O)CN2C(=O)c2cn3cc(Cl)ccc3n2)n1 [Compound 8, 2-((2R,4S)-1-(6-Chloroimidazo[,1,2-a]pyridine-2-carbonyl)-4-hydroxypyrrolidin-2-yl)-N—((R)-6-guanidino-1-(methylamino)-1-oxohexan-2-yl)thiazole-4-carboxamide]
> 9900 | CNC(=O)[C@H](CCCCNC(=N)N)NC(=O)c1csc([C@H]2C[C@@H](O)CN2C(=O)c2cn3cc(Cl)ccc3n2)n1 [Compound 9, 2-((2R,4R)-1-(6-Chloroimidazo[1,2-a]pyridine-2-carbonyl)-4-hydroxypyrrolidin-2-yl)-N—((S)-6-guanidino-1-(methylamino)-1-oxohexan-2-yl)thiazole-4-carboxamide]
> 9900 | CNC(=O)[C@@H](CCCCNC(=N)N)NC(=O)c1csc([C@H]2C[C@@H](O)CN2C(=O)c2cn3cc(Cl)ccc3n2)n1 [Compound 10, 2-((2R,4R)-1-(6-Chloroimidazo[1,2-a]pyridine-2-carbonyl)-4-hydroxypyrrolidin-2-yl)-N—((R)-6-guanidino-1-(methylamino)-1-oxohexan-2-yl)thiazole-4-carboxamide]
≤ 100 | CNC(=O)[C@@H](CCCCNC(=N)N)NC(=O)c1csc([C@@H]2C[C@@H](N)CN2C(=O)c2cn3cc(Cl)ccc3n2)n1 [Compound 12, 2-((2S,4R)-4-amino-1-(6-chloroimidazo[1,2-a]pyridine-2-carbonyl)pyrrolidin-2-yl)-N—((R)-6-guanidino-1-(methylamino)-1-oxohexan-2-yl)thiazole-4-carboxamide]
100 to 1000 | CNC(=O)[C@H](CCCCNC(=N)N)NC(=O)c1csc([C@@H]2C[C@@H](N)CN2C(=O)c2cn3ccccc3n2)n1 [Compound 13, 2-((2S,4R)-4-amino-1-(imidazo[1,2-a]pyridine-2-carbonyl)pyrrolidin-2-yl)-N—((S)-6-guanidino-1-(methylamino)-1-oxohexan-2-yl)thiazole-4-carboxamide]
> 9900 | CNC(=O)[C@H](CCCCNC(=N)N)NC(=O)c1csc([C@@H]2C[C@@H](N)CN2C(=O)c2cn(C)c(C)n2)n1 [Compound 14, 2-((2S,4R)-4-amino-1-(1,2-dimethyl-1H-imidazole-4-carbonyl)pyrrolidin-2-yl)-N—((S)-6-guanidino-1-(methylamino)-1-oxohexan-2-yl)thiazole-4-carboxamide]
> 9900 | CNC(=O)[C@H](CCCCNC(=N)N)NC(=O)c1csc([C@@H]2C[C@@H](N)CN2C(=O)c2ccccc2)n1 [Compound 15, 2-((2S,4R)-4-amino-1-benzoylpyrrolidin-2-yl)-N—((S)-6-guanidino-1-(methylamino)-1-oxohexan-2-yl)thiazole-4-carboxamide]
1000 to 5000 | CNC(=O)[C@H](CCCCNC(=N)N)NC(=O)c1csc([C@@H]2C[C@@H](N)CN2C(=O)OCc2cccc(Cl)c2)n1 [Compound 16, 3-chlorobenzyl (2S,4R)-4-amino-2-(4-(((S)-6-guanidino-1-(methylamino)-1-oxohexan-2-yl)carbamoyl)thiazol-2-yl)pyrrolidine-1-carboxylate]
> 9900 | CNC(=O)[C@H](CCCCNC(=N)N)NC(=O)c1csc([C@@H]2C[C@@H](N)CN2C(=O)C2CCCCC2)n1 [Compound 17, 2-((2S,4R)-4-amino-1-(cyclohexanecarbonyl)pyrrolidin-2-yl)-N—((S)-6-guanidino-1-(methylamino)-1-oxohexan-2-yl)thiazole-4-carboxamide]
> 9900 | CNC(=O)[C@H](CCCCNC(=N)N)NC(=O)c1csc([C@@H]2C[C@@H](N)CN2C(=O)C(C)C)n1 [Compound 18, 2-((2S,4R)-4-amino-1-isobutyrylpyrrolidin-2-yl)-N—((S)-6-guanidino-1-(methylamino)-1-oxohexan-2-yl)thiazole-4-carboxamide]
≤ 100 | CNC(=O)[C@H](CCCCNC(=N)N)NC(=O)c1csc([C@@H]2C[C@@H](N)CN2C(=O)c2cn3cc(C(F)(F)F)ccc3n2)n1 [Compound 19, 2-((2S,4R)-4-amino-1-(6-(trifluoromethyl)imidazo[1,2-a]pyridine-2-carbonyl)pyrrolidin-2-yl)-N—((S)-6-guanidino-1-(methylamino)-1-oxohexan-2-yl)thiazole-4-carboxamide]
100 to 1000 | CNC(=O)[C@H](CCCCNC(=N)N)NC(=O)c1csc([C@@H]2C[C@@H](N)CN2C(=O)c2cn3cc(OC)ccc3n2)n1 [Compound 20, 2-((2S,4R)-4-amino-1-(6-methoxyimidazo[1,2-a]pyridine-2-carbonyl)pyrrolidin-2-yl)-N—((S)-6-guanidino-1-(methylamino)-1-oxohexan-2-yl)thiazole-4-carboxamide]
≤ 100 | CNC(=O)[C@H](CCCCNC(=N)N)NC(=O)c1csc([C@@H]2C[C@@H](N)CN2C(=O)c2cn3cc(I)ccc3n2)n1 [Compound 21, 2-((2S,4R)-4-amino-1-(6-iodoimidazo[1,2-a]pyridine-2-carbonyl)pyrrolidin-2-yl)-N—((S)-6-guanidino-1-(methylamino)-1-oxohexan-2-yl)thiazole-4-carboxamide]
≤ 100 | N=C(N)NCCCC[C@H](NC(=O)c1csc([C@@H]2C[C@@H](N)CN2C(=O)c2cn3cc(Cl)ccc3n2)n1)C(N)=O [Compound 22, 2-((2S,4R)-4-amino-1-(6-chloroimidazo[1,2-a]pyridine-2-carbonyl)pyrrolidin-2-yl)-N—((S)-1-amino-6-guanidino-1-oxohexan-2-yl)thiazole-4-carboxamide]
≤ 100 | N=C(N)NCCCC[C@H](NC(=O)c1csc([C@@H]2C[C@@H](N)CN2C(=O)c2cn3cc(Cl)ccc3n2)n1)C(=O)O [Compound 23, N^2-(2-((2S,4R)-4-amino-1-(6-chloroimidazo[1,2-a]pyridine-2-carbonyl)pyrrolidin-2-yl)thiazole-4-carbonyl)-N6-carbamimidoyl-L-lysine]
100 to 1000 | CN(C)C(=O)[C@H](CCCCNC(=N)N)NC(=O)c1csc([C@@H]2C[C@@H](N)CN2C(=O)c2cn3cc(Cl)ccc3n2)n1 [Compound 24, 2-((2S,4R)-4-amino-1-(6-chloroimidazo[1,2-a]pyridine-2-carbonyl)pyrrolidin-2-yl)-N—((S)-1-(dimethylamino)-6-guanidino-1-oxohexan-2-yl)thiazole-4-carboxamide]
> 9900 | CNC(=O)[C@H](CCCCN)NC(=O)c1csc([C@@H]2C[C@@H](N)CN2C(=O)c2cn3cc(Cl)ccc3n2)n1 [Compound 25, 2-((2S,4R)-4-amino-1-(6-chloroimidazo[1,2-a]pyridine-2-carbonyl)pyrrolidin-2-yl)-N—((S)-6-amino-1-(methylamino)-1-oxohexan-2-yl)thiazole-4-carboxamide]

From patent publication US11168083B2, “Inhibitors of Plasma Kallikrein and uses thereof” (Takeda Pharmaceutical Company Limited, priority 2017, dated 2021)
